Source: patent US4772595A, “Synthetic virginiamycin M1 analogs” (Merck & Co., Inc., priority 1986, dated 1988)

Tests used:
[1] = test system: gastric acid secretion; details: cited from earlier work
[2] = test system: gram-positive bacteria; details: cited from earlier work
[3] = biological target: T1, Brain CCK Receptor (Cavia porcellus, UniProt H0VZC5); experiment: Brain Cholecystokinin Receptor Binding Assay (cerebral cortex); details: guinea pig cerebral cortex, 125I-CCK-8, 25° C., 2 hours
T1 construct: The cerebral cortex was dissected and used as a receptor source; from tissue; host or cells: cerebral cortex membranes of male Hartley guinea pigs
T1 sequence (H0VZC5 1-426): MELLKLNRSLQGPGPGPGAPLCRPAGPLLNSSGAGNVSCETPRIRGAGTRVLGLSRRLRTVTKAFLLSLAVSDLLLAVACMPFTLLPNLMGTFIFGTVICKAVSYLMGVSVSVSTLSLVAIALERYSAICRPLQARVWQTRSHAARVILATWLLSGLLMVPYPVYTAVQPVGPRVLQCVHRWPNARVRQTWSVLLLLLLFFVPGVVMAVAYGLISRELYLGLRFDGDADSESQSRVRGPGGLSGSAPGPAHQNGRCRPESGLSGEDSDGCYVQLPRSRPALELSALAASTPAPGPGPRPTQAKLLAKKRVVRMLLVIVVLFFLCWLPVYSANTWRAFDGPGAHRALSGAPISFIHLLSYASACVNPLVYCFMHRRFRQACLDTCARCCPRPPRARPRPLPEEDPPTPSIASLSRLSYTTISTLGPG
Procedure: CCK-8 binding was performed according to the description for the pancreatic method, with modifications by Saito et al., J. Neurochem., 37, 483 (1981).
The brains from male Hartley guinea pigs (300-500 g) were removed and placed in ice-cold 50 mM Tris HCl plus 7.58 g/L Trizma-7.4 [pH 7.4 at 25° C.]. The cerebral cortex was dissected and used as a receptor source and each gram of fresh guinea pig brain tissue was homogenized in 10 ml of Tris/Trizma buffer, pH 7.4, with a Brinkmann polytron PT-10. The homogenates were centrifuged at 42,000×g for 15 minutes, then the resulting pellets were resuspended in 200 volumes of binding assay buffer (10 mM N-2-hydroxy-ethyl-piperazine-N'-2-ethane-sulfonic acid (HEPES), pH 7.7 at 25° C., MgCl2, 1 mM ethylene glycol-bis-(β-amino-ethyl-ether-N,N'-tetraacetic acid (EGTA), 0.4% BSA and 0.25 mg/ml bacitracin, pH 6.5).
The remainder of the binding assay method was as described for the pancreatic method, Example 6, except that the reaction mixtures were incubated at 25° C. for 2 hours before filtration and the filters were washed with HEPES buffer.

[4] = test system: CCK and gastrin receptors; experiment: Binding to both CCK and gastrin receptors (summary statement); details: summary in words
Procedure: Biological activity of virginiamycin M1 and the compounds of Formulae I, II, III and IV is determined by gastrin receptor binding, pancreas CCK receptor binding, brain CCK binding and microbial growth inhibition assays.

[5] = C-terminal octapeptide vs CCK-33; cited from earlier work

Molecule	IC50 [3] [nM]	binding to CCK and gastrin receptors [4]	other results
Gastrin-17: 17-amino acid form of gastrin, C-terminal fragment of the 34-amino acid form			potency relative to Gastrin-13 ([1]; Gastrin-17 vs Gastrin-13): 2.5 times; potency relative to Gastrin-34 ([1]; Gastrin-17 vs Gastrin-34): 5 times
CC1=C\[C@@H](O)CC(=O)Cc2nc(co2)C(=O)N2CCC=C2C(=O)O[C@H](C(C)C)[C@H](C)/C=C/C(=O)NC\C=C\1 [Virginiamycin M1]	571	bind to both CCK and gastrin receptors	antibacterial specificity [2]: generally specific for gram-positive bacteria and prevent cell multiplication
CC1=C\CCC(=O)Cc2nc(co2)C(=O)N2CCC=C2C(=O)O[C@H](C(C)C)[C@H](C)/C=C/C(=O)NC\C=C\1 [IV]	270	bind to both CCK and gastrin receptors	
CC1=C\C=C\[C@H](O)Cc2nc(co2)C(=O)N2CCC=C2C(=O)O[C@H](C(C)C)[C@H](C)/C=C/C(=O)NC\C=C\1 [Compound II]	6.1	bind to both CCK and gastrin receptors	
CC1=C\C=C\[C@@H](O)Cc2nc(co2)C(=O)N2CCC=C2C(=O)O[C@H](C(C)C)[C@H](C)/C=C/C(=O)NC\C=C\1 [Compound I]	7.8	bind to both CCK and gastrin receptors	
C-terminal octapeptide: C-terminal octapeptide has the same efficacy as CCK-33			efficacy relative to CCK-33 [5]: same efficacy as CCK-33; potency relative to CCK-33 [5]: approximately ten
CC1=C\C=C\C(=O)Cc2nc(co2)C(=O)N2CCC=C2C(=O)O[C@H](C(C)C)[C@H](C)/C=C/C(=O)NC\C=C\1 [Compound III]	13.3	bind to both CCK and gastrin receptors	
